The source of these data is patent publication US20080090805A1, “CB-1 MODULATING COMPOUNDS AND THEIR USE” (ACADIA PHARMACEUTICALS INC., priority 2005, published 2008).

This assay addresses CB1 (mutant) (Homo sapiens, UniProt P21554). As to the kind of experiment: R-SAT functional receptor assay, CB1 (mutant, truncated after amino acid 417). Format: cell-based. The following applies: Appendix A, R-SAT CB1; for IC50 / pIC50: receptor form (mutant or wild-type) not stated; for IC50: read-out: pIC50 (converted); for Emax: receptor form not stated, relative to SR141716 (100%), read-out: % Inhibition.

CB1 (mutant), sequence (P21554 1-417, change not shown): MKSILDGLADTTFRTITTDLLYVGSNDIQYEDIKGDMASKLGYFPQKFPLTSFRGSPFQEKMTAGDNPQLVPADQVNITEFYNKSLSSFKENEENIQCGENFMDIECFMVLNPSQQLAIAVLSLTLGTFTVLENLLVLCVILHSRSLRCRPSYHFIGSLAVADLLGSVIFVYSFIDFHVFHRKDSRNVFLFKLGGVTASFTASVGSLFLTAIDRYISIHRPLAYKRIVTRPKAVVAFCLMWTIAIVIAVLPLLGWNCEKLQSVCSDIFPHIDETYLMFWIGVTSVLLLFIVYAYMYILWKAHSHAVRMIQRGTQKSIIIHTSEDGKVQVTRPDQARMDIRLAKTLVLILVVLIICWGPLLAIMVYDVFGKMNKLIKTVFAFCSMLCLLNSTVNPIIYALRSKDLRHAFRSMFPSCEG

Regarding `COc1ccc(C2=Nc3cc(C(=O)NNC(=O)Cc4ccccc4)ccc3Sc3ccccc32)cc1`, the IC50 is 50.1 nM and the Emax was found to be 77%.
`CCCCC1=Nc2cc(C(=O)NC)ccc2Sc2ccccc21`: the IC50 is 50.1 nM and the Emax is 55%.
For `CCCC1=Nc2cc(C(=O)NCCCN3CCN(C4CCCCC4)CC3)ccc2Sc2ccccc21`, in that order: 631 nM and 118%.
In the case of `CCCC1=Nc2cc(C(=O)N3CCc4ccccc4C3)ccc2Sc2ccccc21`, the IC50 was 631 nM and the Emax is 95%.
For `CCCCNC(=O)c1ccc2c(c1)N=C(C#C[Si](C)(C)C)c1ccccc1S2`, in that order: 631 nM and 64%.
For `CCCCN(C)CCCNC(=O)c1ccc2c(c1)N=C(CCC)c1ccccc1S2`, in that order: 794 nM and 124%.
As for `O=C(NN1CCOCC1)c1ccc2c(c1)N=C(N1CCCCC1)c1ccccc1S2`, the IC50 is 794 nM and the Emax turned out to be 99%.
As for `CCOCCNC(=O)c1ccc2c(c1)N=C(N1CCCCC1)c1ccccc1S2`, the IC50 was 794 nM and the Emax came out at 103%.
For `CC(C)NC(=O)c1ccc2c(c1)N=C(c1ccccn1)c1ccccc1S2`, in that order: 794 nM and 60%.
In the case of `O=C(NC1CCCC1)c1ccc2c(c1)N=C(c1ccccc1Cl)c1ccccc1S2`, the IC50 is 794 nM and the Emax is 59%.
For `CCCC1=Nc2cc(C(=O)NCCc3ccc(OC)c(OC)c3)ccc2Sc2ccccc21`, in that order: 31.6 nM and 105%.
On to `COCCNC(=O)c1ccc2c(c1)N=C(c1ccccc1Cl)c1ccccc1S2`, for which the IC50 was 794 nM and the Emax came to 62%.
On to `CCCC1=Nc2cc(C(=O)NCc3ccco3)ccc2Sc2ccccc21`, for which the IC50 was 31.6 nM and the Emax was determined as 103%.
For `CON(C)C(=O)c1ccc2c(c1)N=C(c1sccc1C)c1ccccc1S2`, in that order: 794 nM and 42%.
For `CONC(=O)c1ccc2c(c1)N=C(c1ccc(Br)cc1)c1ccccc1S2`, in that order: 794 nM and 68%.
As for `CCCC1=Nc2cc(C(=O)NCCc3ccccc3)ccc2Sc2ccccc21`, the IC50 is 794 nM and the Emax turned out to be 98%.
For `O=C(NCc1ccncc1)c1ccc2c(c1)N=C(c1ccccc1Cl)c1ccccc1S2`, in that order: 794 nM and 67%.
For `O=C(NCc1ccncc1)c1ccc2c(c1)N=C(NCc1ccc(Cl)cc1)c1ccccc1S2`, in that order: 794 nM and 56%.
On to `O=C(NCc1ccc(Cl)cc1Cl)c1ccc2c(c1)N=C(C1CCCCC1)c1ccccc1S2`, for which the IC50 is 31.6 nM and the Emax was found to be 90%.
As to `CCCC1=Nc2cc(C(=O)N3CCN(C(=O)OCC)CC3)ccc2Sc2ccccc21`, the IC50 was 1000 nM and the Emax worked out at 77%.
For `CCCNC(=O)c1ccc2c(c1)N=C(CCC)c1ccccc1S2`, in that order: 31.6 nM and 95%.
For `CCCC1=Nc2cc(C(=O)NC(C)CCN(C)C(=O)OCC)ccc2Sc2ccc(C)cc21` (centres unmarked), in that order: 1000 nM and 79%.
For `CCCCN(C)C(=O)c1ccc2c(c1)N=C(c1ccccn1)c1ccccc1S2`, in that order: 1000 nM and 57%.
Consider `Cc1cccnc1C1=Nc2cc(C(=O)NC3CCCC3)ccc2Sc2ccccc21`, for which the IC50 was 1000 nM and the Emax was 57%.
Turning to `CONC(=O)c1ccc2c(c1)N=C(c1cccc(F)c1)c1ccccc1S2`, the IC50 is 1000 nM and the Emax was found to be 67%.
Consider `CCCCN(C)C(=O)c1ccc2c(c1)N=C(c1ccc(F)cc1)c1ccccc1S2`, for which the IC50 is 31.6 nM and the Emax is 107%.
For `O=C(NCc1ccco1)c1ccc2c(c1)N=C(c1ccccn1)c1ccccc1S2`, in that order: 31.6 nM and 102%.
For `CCCSCCCNC(=O)c1ccc2c(c1)N=C(CCC)c1ccccc1S2`, in that order: 1580 nM and 87%.
For `CCCNC(=O)c1ccc2c(c1)N=C(c1ccccn1)c1ccccc1S2`, in that order: 39.8 nM and 116%.
With `CCCNC1=Nc2cc(C(=O)NN3CCCCC3)ccc2Sc2ccccc21`, the IC50 is 1580 nM and the Emax was found to be 89%.
In the case of `CCCC1=Nc2cc(C(=O)NCC3CCCN3CC)ccc2Sc2ccccc21` (centres unmarked), the IC50 was 1580 nM and the Emax stood at 133%.
Take `CON(C)C(=O)c1ccc2c(c1)N=C(c1ccc(Cl)cc1F)c1ccccc1S2`: the IC50 is 1580 nM and the Emax is 46%.
For `CCCC1=Nc2cc(C(=O)NCCN(CC)CC)ccc2Sc2ccccc21`, in that order: 1580 nM and 131%.
For `CCCC1=Nc2cc(C(=O)NCc3ccc4c(c3)OCO4)ccc2Sc2ccc(C)cc21`, in that order: 1580 nM and 77%.
For `NS(=O)(=O)c1ccc(CNC(=O)c2ccc3c(c2)N=C(NCc2ccc(Cl)cc2)c2ccccc2S3)cc1`, in that order: 1580 nM and 41%.
Consider `CCCC1=Nc2cc(C(=O)NCCN(C)C3CCCCC3)ccc2Sc2ccccc21`, for which the IC50 was 2000 nM and the Emax came out at 123%.
For `O=C(NN1CCCCC1)c1ccc2c(c1)N=C(Nc1ccccc1)c1ccccc1S2`, in that order: 2000 nM and 92%.
For `CCCC1=Nc2cc(C(=O)NCCCN3CCN(C)CC3)ccc2Sc2ccccc21`, in that order: 2510 nM and 120%.
For `CCCC1=Nc2cc(C(=O)N3CCN(C(=O)c4ccco4)CC3)ccc2Sc2ccccc21`, the IC50 is 2510 nM and the Emax came out at 88%.
Turning to `CCCC1=Nc2cc(C(=O)NCCCN3CCN(c4ccc(OC)cc4)CC3)ccc2Sc2ccccc21`, the IC50 was 2510 nM and the Emax amounted to 79%.
For `CCCC1=Nc2cc(C(=O)NCCCN(CC)CC)ccc2Sc2ccccc21`, in that order: 2510 nM and 125%.
As for `CCCC1=Nc2cc(C(=O)N3CCC(N4CCCCC4)CC3)ccc2Sc2ccccc21`, the IC50 is 2510 nM and the Emax is 128%.
Regarding `CCCC1=Nc2cc(C(=O)NC(C)CCc3ccccc3)ccc2Sc2ccccc21` (centres unmarked), the IC50 is 39.8 nM and the Emax was determined as 95%.
For `CCCC1=Nc2cc(C(=O)NCCN3CCCC3)ccc2Sc2ccccc21`, in that order: 3160 nM and 138%.
In the case of `CCONC(=O)c1ccc2c(c1)N=C(c1ccc(Cl)cc1Cl)c1ccccc1S2`, the IC50 is 3160 nM and the Emax was 37%.
For `CCCC1=Nc2cc(C(=O)NCCN3CCN(c4cccc(C)c4C)CC3)ccc2Sc2ccccc21`, in that order: 3160 nM and 84%.
For `CCCNC(=O)c1ccc2c(c1)N=C(c1ccccc1F)c1ccccc1S2`, in that order: 39.8 nM and 97%.
With `CCOC(=O)c1ccc(C2=Nc3cc(C(=O)NNC(=O)Cc4ccccc4)ccc3Sc3ccccc32)cc1`, the IC50 is 3160 nM and the Emax came out at 61%.
Usually pIC50 stands for the IC50 on a negative log10 scale, so that one unit is a factor of ten. Read a high pIC50 as a low IC50. On to `CONC(=O)c1ccc2c(c1)N=C(c1ccc(C#N)cc1)c1ccccc1S2`, for which the negative logarithm of the IC50 (pIC50) came to 1.0 and the Emax worked out at 36%.
For `CCONC(=O)c1ccc2c(c1)N=C(c1ccccn1)c1ccccc1S2`, in that order: 1.0 and 3%.
For `CON(C)C(=O)c1ccc2c(c1)N=C(c1ccccc1Cl)c1ccccc1S2`, in that order: 1.0 and 10%.
Regarding `CCONC(=O)c1ccc2c(c1)N=C(c1ccccc1Cl)c1ccccc1S2`, the pIC50 was determined as 1.0 and the Emax was found to be 19%.
Regarding `CON(C)C(=O)c1ccc2c(c1)N=C(c1ccccn1)c1ccccc1S2`, the pIC50 was found to be 1.0 and the Emax was determined as 8%.
As for `CONC(=O)c1ccc2c(c1)N=C(c1ccccc1Cl)c1ccccc1S2`, the pIC50 was determined as 1.0 and the Emax is -15%.
With `O=C(NOc1cccc(Cl)c1)c1ccc2c(c1)N=C(C1CCCCC1)c1cc(F)ccc1S2`, the IC50 is 39.8 nM and the Emax worked out at 100%.
For the molecule `CONC(=O)c1ccc2c(c1)N=C(c1ccc(Cl)cc1Cl)c1ccccc1S2`, the pIC50 was 1.0 and the Emax was -27%.
Consider `COCCNC(=O)c1ccc2c(c1)N=C(c1ncccc1C)c1ccccc1S2`, for which the pIC50 is given as 1.0 and the Emax was -6%.
For `CONC(=O)c1ccc2c(c1)N=C(c1ncccc1C)c1ccccc1S2`, the pIC50 is reported as 1.0 and the Emax is 8%.
For `CON(C)C(=O)c1ccc2c(c1)N=C(c1ncccc1C)c1ccccc1S2`, in that order: 1.0 and 0%.
With `CCCC1=Nc2cc(C(=O)NCC(OCC)OCC)ccc2Sc2ccccc21`, the IC50 is 39.8 nM and the Emax was 107%.
For the molecule `CCONC(=O)c1ccc2c(c1)N=C(c1ncccc1C)c1ccccc1S2`, the pIC50 is recorded as 1.0 and the Emax is 21%.
Consider `O=C(c1ccc2c(c1)N=C(c1cccc(Cl)c1)c1ccccc1S2)N1CCCCC1`, for which the IC50 is 39.8 nM and the Emax stood at 80%.
`CCCCN(C)C(=O)c1ccc2c(c1)N=C(c1ncccc1C)c1ccccc1S2`: the pIC50 is listed as 1.0 and the Emax came out at 14%.
For `CON(C)C(=O)c1ccc2c(c1)N=C(c1ccc(Cl)cc1Cl)c1ccccc1S2`, in that order: 1.0 and 18%.
Consider `Cc1cccnc1C1=Nc2cc(C(=O)NCc3cccnc3)ccc2Sc2ccccc21`, for which the IC50 was above 126 nM and the Emax stood at 39%.
Turning to `Cc1cc(NC(=O)c2ccc3c(c2)N=C(c2cccc(F)c2)c2ccccc2S3)no1`, the IC50 was above 1260 nM and the Emax is 29%.
For `Cc1cccnc1C1=Nc2cc(C(=O)NCCc3cccnc3)ccc2Sc2ccccc21`, in that order: above 5010 nM and 28%.
